Reference: US10241113B2, “CD28 expression during lenalidomide immune modulation” (H. LEE MOFFITT CANCER CENTER AND RESEARCH INSTITUTE, INC., priority 2012, dated 2019)
Each block holds one compound with its values, some of them ahead of it.

Columns and labels:
MDS patients = assay: Hematologic response of MDS patients versus pre-treatment CD28 expression; format: in vivo, human; settings: 10 mg 21 of 28 days, 16 weeks, 7 NR and 4 R
Experimental: MDS patients (n=100) were consented at H. Lee Moffitt Cancer Center in Tampa, Fla. to participate in a peripheral blood collection protocol approved by the University of South Florida Institutional Review Board from 2004-2009. All patients signed University of South Florida Institutional Review Board approved informed consents for the collection of 40 ml of peripheral blood in heparin tubes. Samples were obtained from each patient at various times from 2004-2009 for immune monitoring studies and all cells were frozen in liquid nitrogen. Twenty-one of these patients had samples that were collected within 4 weeks prior to LEN treatment. LEN was administered at a dose of 10 mg for 21 out of a 28-day cycle for four cycles. All patients were evaluated for hematologic response after 16 weeks according to 2006 International Working Group Criteria (IWG). […]
Naïve and memory CD4 and CD8 T-cell subtypes in MDS patients and healthy donors were detected after surface staining with anti-CD3-PE-Cy7, anti-CD8-PerCP-Cy5.5, anti-CD45RA-FITC, anti-CD27-APC, anti-CD28-PE, and DAPI (all from BD Biosciences, San Jose, Calif. USA). […] Samples were run on an LSRII flow cytometer (BD Pharmingen) and populations were analyzed by FlowJo Software (Tree Star Inc., Ashland, Oreg. USA).

[1] = Storage of DMSO stock solutions; format: physicochemical; settings: −20° C.
Source text: (§1) Lenalidomide (Revlimid®) was provided by Celgene Corporation (Warren, N.J.). […] An equal volume of DMSO was used as a vehicle control.

CD8^+CD28^− T-cells = assay: IL-2 ELISA of sorted CD8^+CD28^− T-cells; format: cell-based, human; settings: anti-CD3 stimulation, 3 days, 10 μM LEN
Source text: (§2) T-cells were purified from healthy donor buffy coats as previously described, and were stained with 4′,6-diamidino-2-phenylindole (DAPI) for viability, anti-CD8-APC-Cy7, CD4-PerCP-Cy5.5, and CD28-FITC antibodies (BD Pharmingen, San Jose, Calif.). Cells were then sorted into CD8^+CD28^+, CD8^+CD28^− populations via FACS Aria Cell Sorter (BD Pharmingen, San Jose, Calif.).
(§3) For siRNA knockdown (KD), T-cells were transfected with siCD28 or control siRNA (Santa Cruz Biotechnology, Inc, Santa Cruz, Calif. USA) using Amaxa Nucleofection technology (Lonza, Basel, Switzerland). 10×10^6 purified T-cells were mixed with either control or CD28 siRNA in 100 μl Human T-cell nucleofection solution, nucleofected, and then placed in Lymphocye Media (Lonza Basel, Switzerland). Cells were rested 24 hours before being stimulated with either plate bound anti-CD3, or anti-CD3^+CD28, antibodies in the presence or absence of LEN. CD28 surface expression was measured via flow cytometry at 48 and 72 hours after stimulation, at the same time supernatant was collected for ELISA analysis. Supernatant from stimulation experiments was frozen at −80° C. for analysis via Human IL-2 ELISA kit (eBioscience, San Diego, Calif. USA).

[2] = test system: CD8^+CD28^+ and CD8^+CD28^− T-cells; assay: BrdU proliferation of sorted CD8^+CD28^+ and CD8^+CD28^− T-cells; format: cell-based, human; settings: 3 days, 10 μM LEN
Experimental: Proliferation was determined after in vitro activation by bromodeoxyuridine (BrdU) incorporation (BrdU flow kit, BD Biosciences, San Diego, Calif. USA). […] of BrdU was added during the last 45 min of T-cell stimulation. BrdU pulsed T-cells were harvested and stained with anti-CD4-PE and anti-CD8-PE-Cy-5 (BD Pharmingen, San Jose, Calif. USA). The cells were then fixed and permeabilized with BD Cytofix/Cytoperm buffer and incubated with DNase for 1 hour at 37° C. Cells were stained with anti-BrdU-FITC antibody before flow cytometry analysis on an LSRII flow cytometer (BD Biosciences, San Jose, Calif. USA). The percentage of BrdU positive cells from each population was analyzed using Flow-Jo Software (TreeStar Inc, Ashland, Oreg. USA.).
as §2

CD28 [3] = assay: CD28 mRNA expression by RT-qPCR; format: cell-based, human; settings: anti-CD3 stimulation, 18 or 24 hours
Experimental: (§4) Total RNA was extracted from purified T-cells using the RNeasy Mini Kit (Qiagen, Chatsworth, Calif. USA). […] Relative target gene expression was measured by qRT-PCR using 18S rRNA expression as a reference gene. Expression levels of target mRNA and 18S rRNA were evaluated with Taqman Probes obtained from Applied Biosystems (Carlsbad, Calif.). All samples for both target genes (IL-2 or CD28) and 18S rRNA were measured in triplicate. Relative mRNA expression level for each sample was calculated using the ΔΔCt method (Pfaffl M W. Nucleic Acids Res 2001 May 1; 29(9):e45).

purified human T-cells [4] = assay: IL-2 production by ELISA in stimulated T-cells; format: cell-based
Source text: (§5) Peripheral blood from buffy coats of healthy donors was obtained from the Southwest Florida Blood Services, St. Petersburg, Fla., for use as controls and for the purification of T-cells. T-cells were isolated from the buffy coats using RosetteSep® Human CD3^+ T-cell Enrichment Cocktail (StemCell Technologies, Vancouver, BC Canada) according to the manufacturer's protocol. B57BL6 mice were maintained at an animal facility in accordance with the University of South Florida Committee on Animal Care. All mice were adult age 8-12 weeks, obtained from The Jackson Laboratory, and maintained in a pathogen-free environment at Moffitt Cancer Center. Mouse-specific antibodies for T-cell activation were purchased from eBioscience (San Diego, Calif.) and human-specific antibodies were purchased from BD Biosciences (San Jose, Calif. USA). To activate the T-cell receptor (TCR), T-cells were stimulated with plate-bound anti-CD3 antibody (1 μg/ml or indicated concentration) coated onto flat-bottomed polystyrene tissue culture plates overnight at 4° C. Purified T-cells (1×10^6/ml) were added to the coated 96-well plates in a 200 μl volume for 48 hours at 37° C. In some instances, 1.0 μg/ml anti-CD28 was added for co-stimulation.
as §1
as §3, with “Supernatant from stimulation experiments was frozen at −80° C. for analysis via Human IL-2 ELISA kit (eBioscience, San Diego, Calif. USA).” left out

CD28 [5] = assay: Western blot for total CD28 protein expression; format: cell-based, human; settings: anti-CD3 activation for 1, 2, 4, 8, 12, and 48 hours
[6] = test system: pCREB binding to the IL-2 promoter; assay: Chromatin immunoprecipitation of pCREB at the IL-2 promoter; format: cell-based, human; settings: anti-CD3 alone, 18 hours, 10 μM LEN
Experimental: Cells were isolated, fixed, lysed, and sonicated before chromatin-immunoprecipitation, as previously described (Smith M A, et al. J Biol Chem 2011 Mar. 11; 286(10):7893-904). Briefly, after stimulation and drug treatment, primary T-cells were treated with 1% formaldehyde for 10 min for cross-linking, followed by cell and nuclear lysis (50 mM Tris, pH 8.1, 10 mM EDTA, 1% SDS, 0.5 mM PMSF) and shearing. Chromatin was immunoprecipitated using 5 μg anti-phospho-CREB antibody (Millipore, Temecula, Calif. USA) and protein A/G beads (Santa Cruz Biotechnology Inc., Santa Cruz, Calif. USA). Immunoprecipitated chromatin was collected and washed sequentially with TSE buffer (20 mM Tris, pH 8.1, 50 mM NaCl, 2 mM EDTA, 0.1% SDS, 1.0% Triton X-100) and LiCl buffer (100 mM Tris, pH 8.1, 50 mM LiCl, 1% Nonidet P-40, 1% sodium deoxycholic acid, 1 mM EDTA). DNA was then eluted from the beads with 50 mM NaHCO3 containing 1% SDS and cross-linking reversed at 65° C. overnight followed by proteinase K treatment. DNA was then purified via QIAquick PCR purification kit (Qiagen, Germantown, Md. USA). For each sample, 4 μl DNA was amplified and measured using Sybr Green (Bio-Rad, Inc., Hercules, Calif. USA). Primers used to amplify the pCREB binding site-180 upstream of the transcription start site were: forward: 5′-[…]-3′ (SEQ ID NO:1) and reverse: 5′-[…]-3′ (SEQ ID NO:2).

CD28 [7] = assay: CD28 internalization and re-expression by flow cytometry after co-stimulation; format: cell-based, human
Experimental: as §3

purified human T-cells [8] = assay: T-cell proliferation by BrdU incorporation, anti-CD3 stimulated; format: cell-based; settings: increasing anti-CD3, 10 μM LEN
Source text: as §5, with “Purified T-cells (1×10^6/ml) were added to the coated 96-well plates in a 200 μl volume for 48 hours at 37° C. In some instances, 1.0 μg/ml anti-CD28 was added for co-stimulation.” left out
Proliferation was determined after in vitro activation by bromodeoxyuridine (BrdU) incorporation (BrdU flow kit, BD Biosciences, San Diego, Calif. USA). […] The percentage of BrdU positive cells from each population was analyzed using Flow-Jo Software (TreeStar Inc, Ashland, Oreg. USA.).

CD28^+ T-cells = assay: IL-2 ELISA after CD28 siRNA knockdown; format: cell-based, human; settings: average
Experimental: as §3

murine T-cells = assay: IL-2 production by ELISA in murine T-cells; format: cell-based, B57BL6 mice
Source text: as §5, §1

CD28 [9] = assay: CD28 surface expression by flow cytometry after anti-CD3 stimulation; format: cell-based, human; settings: anti-CD3 alone, 72 hours
Experimental: Stimulation followed by measurement of CD28 surface expression was performed using anti-CD3 (10 μg/ml) alone or anti-CD3 (10 μg/ml) plus anti-CD28 (10 μg/ml) coupled 4.5 micron polystyrene polybeads (Polysciences, Inc, Warrington, Pa. USA). 1×10^5 beads were added to 2×10^5 cells in u-bottom 96-well plates, as previously described (Viola A, et al. Science 1999 283(5402):680-2). Cells were collected at 72 hours and 5 days, and CD28 surface expression was measured via flow cytometry on LSRII flow cytometer (BD Biosciences, San Jose, Calif. USA).

IL-2 gene = assay: IL-2 mRNA expression by RT-qPCR; format: cell-based, human; settings: anti-CD3 alone without anti-CD28, 18 hours
Source text: as §5, with “To activate the T-cell receptor (TCR), T-cells were stimulated with plate-bound anti-CD3 antibody (1 μg/ml or indicated concentration) coated onto flat-bottomed polystyrene tissue culture plates overnight at 4° C. Purified T-cells (1×10^6/ml) were added to the coated 96-well plates in a 200 μl volume for 48 hours at 37° C. In some instances, 1.0 μg/ml anti-CD28 was added for co-stimulation.” left out
as §4

[10] = species comparison; cited from earlier work

stability of stock solutions on storage [1]: variable loss in activity
Structure (SMILES): Nc1cccc2c1CN(C1CCC(=O)NC1=O)C2=O (stereo not drawn) [LEN, Lenalidomide]
hematologic response (IWG) in relation to pre-treatment CD28^+ T-cells (MDS patients): correlation between accumulation of CD28^− T-cells and resistance to LEN | elaboration of IL-2 in CD8^+CD28^− T-cells (CD8^+CD28^− T-cells): completely abolished in CD8^+CD28^− T-cells with no response to LEN | proliferation of CD8^+CD28^+ T-cells ([2]; anti-CD3 stimulation alone): increased proliferation of CD8^+CD28^+ T-cells in a dose-dependent fashion | proliferation of CD8^+CD28^− T-cells compared to DMSO ([2]; anti-CD3 stimulation): displayed no response to LEN | CD28 mRNA (CD28 [3]): did not significantly increase | IL-2 production with increasing concentrations of LEN (purified human T-cells [4]; fixed 5 μg/ml anti-CD3 alone): dose-dependency of IL-2 production | increase in IL-2 production (purified human T-cells [4]; human T-cells, anti-CD3 plus anti-CD28 co-stimulation, average, p<0.001): 6 fold | production of IL-2 compared to DMSO (purified human T-cells [4]; human T-cells, increasing anti-CD3, no anti-CD28, 10 μM LEN): increased the production of IL-2 | total protein expression of CD28 (CD28 [5]): did not significantly increase | binding of pCREB to the IL-2 promoter compared to DMSO [6]: increases binding of pCREB to the IL-2 promoter | CD28 re-expression (CD28 [7]; after anti-CD3 plus anti-CD28 stimulation): re-expression was slightly increased | ligand-induced CD28 internalization (CD28 [7]; anti-CD3 plus anti-CD28 stimulation): does not impair ligand-induced internalization | proliferating cells (% BrdU positive) compared to DMSO (purified human T-cells [8]): stimulated more cells to proliferate in a dose dependent fashion | LEN-induced IL-2 release, fold increase (CD28^+ T-cells; control siRNA): 7.5 fold | LEN-induced IL-2 release, fold increase (CD28^+ T-cells; siRNA-CD28 knockdown): 4.9 fold | IL-2 production in TCR-stimulated murine T-cells (murine T-cells; anti-CD3 alone): failed to induce IL-2 production | anti-CD28 signaling response (IL-2) in murine T-cells (murine T-cells; anti-CD3 plus anti-CD28): failed to intensify the anti-CD28 signaling response | CD28 surface expression (MFI) compared to DMSO (CD28 [9]): amplifies this anti-CD3 response | IL-2 mRNA compared to DMSO (IL-2 gene): dose-dependent increase in IL-2 mRNA

Structure (SMILES): O=C1CCC(N2C(=O)c3ccccc3C2=O)C(=O)N1 (stereo not drawn) [Thalidomide]
teratogenic activity [10]: teratogenic activity only in humans, rabbits, chickens and zebrafish, but not in rodents
